# Assay results taken from patent publication US8865725B2, “Substituted imidazopyrimidin-5(6H)-ones as allosteric modulators of MGLUR5 receptors” (Vanderbilt University, priority 2011, dated 2014).
# Test system: amphetamine-induced hyperlocomotion
# Experiment: Reversal of amphetamine-induced hyperlocomotion
# Type: in vivo, male Sprague-Dawley rats
# Conditions: test compound by oral gavage in 20% HP-beta-CD; amphetamine sulfate 1 mg/kg sc; FIG. 4
# Description: Locomotor activity was assessed as mean distance traveled (cm) in standard 16×16 photocell testing chambers measuring 43.2 cm (Length)×43.2 cm (Width)×30.5 cm (Height) (Med Associates, St. Albans, Vt.). Animals were habituated to individual activity chambers for at least 30 min prior to drug administration. Following administration of drug or vehicle, activity was recorded for a 90 minute time period. Data was expressed as the mean (±SEM) distance traveled recorded in 5 min intervals over the test period. The data was analyzed using repeated measures analysis of variance (ANOVA) followed by post-hoc testing using Dunnett's test, when appropriate. A difference was considered significant when p≦0.05. […]
# The animals were habituated in Smart Open Field locomotor activity test chambers (Hamilton-Kinder, San Diego, Calif.) with 16×16 photobeams to automatically record locomotor activity for 30 min and then dosed with vehicle or test compound. […] At 60 min, all rats were injected subcutaneously with 1 mg/kg amphetamine or vehicle and then monitored for an additional 60 min. Animals are monitored for a total of 120 minutes. Data are expressed as changes in ambulation defined as total number of beam breaks per 5 min periods.
# The data for the dose-response studies were analyzed by a between-group analysis of variance. […]
smiles,measurement,value
"O=C1N(c2ccc(F)cc2)CCc2nc(COc3ccccc3)cn21 [6-(4-fluorophenyl)-2-(phenoxymethyl)-7,8-dihydroimidazo[1,2-c]pyrimidin-5(6H)-one]",reversal of amphetamine-induced hyperlocomotion,Dose-dependent results for reversal of amphetamine-induced hyperlocomotion
